Data set [1] addresses T1, CCK-B receptors (CHO-CCK) (Homo sapiens, UniProt P32239).
T1 construct: expressed in transfected cells; host or cells: CHO (CHO-CCK model cells)
T1 sequence (P32239 1-447): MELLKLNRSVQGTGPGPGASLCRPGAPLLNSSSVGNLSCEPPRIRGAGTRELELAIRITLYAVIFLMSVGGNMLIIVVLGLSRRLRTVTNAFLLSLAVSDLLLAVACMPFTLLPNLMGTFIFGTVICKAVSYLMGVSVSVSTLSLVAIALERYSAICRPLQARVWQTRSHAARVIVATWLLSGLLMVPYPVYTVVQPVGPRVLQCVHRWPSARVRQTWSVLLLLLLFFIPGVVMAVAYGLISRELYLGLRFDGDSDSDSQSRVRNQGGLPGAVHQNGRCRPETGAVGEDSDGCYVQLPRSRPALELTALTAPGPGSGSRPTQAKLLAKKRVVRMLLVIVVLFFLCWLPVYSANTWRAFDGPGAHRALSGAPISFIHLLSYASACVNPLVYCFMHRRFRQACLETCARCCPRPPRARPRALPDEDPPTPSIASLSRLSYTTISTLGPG
Kind of data set: Calcium flux (Fluo-8) antagonist test on CHO-CCK model cells in presence of CCK8. The data set is classed as cell-based. The conditions noted are these: in presence of 10 nM CCK8.

The test system of data set [2] is tri-transgenic Alzheimer's mice (3×Tg-AD). The data set can be described thus: Morris water maze, Alzheimer's mice. The conditions noted are these: intraperitoneal injection. The data set is classed as in vivo. The source says:
Adult male tri-transgenic Alzheimer's mice (3×Tg-AD) were housed under standard conditions with free access to food and water. Our Morris water maze experiment for testing Alzheimer's mice mainly included two parts: positioning navigation experiment and space exploration experiment. The positioning navigation experiment lasted for 8-10 days, and the mice were put into the water four times a day from four entry points facing the pool wall, and the time they spent in finding the hidden platform under the water surface (evasion latency) was recorded. The space exploration experiment was to remove the platform after the positioning navigation experiment, and then put the mice into the pool, record their swimming tracks within one minute, investigate the memory of the mice on the original platform, and calculate the proportion of exploration duration of the mice in the quadrant where the original platform was located (target quadrant). Alzheimer's mice were confirmed to have memory deficiency in the Morris water maze experiment, showing not only a longer evasion latency for positioning the hidden platform in the positioning navigation experiment, but also a worse memory backtracking ability in the space exploration experiment. We randomized Alzheimer's mice into four groups, with the first group given intraperitoneal injection of the CCK4 solution, the second group given intraperitoneal injection of the solvent of CCK4 solution as a control, the third group given intraperitoneal injection of the compound HT-267 solution, and the fourth group given intraperitoneal injection of the solvent of HT-267 solution as a control.

For data set [3] the test system is unchanged. The data set can be described thus: New object recognition experiment, Alzheimer's mice. The data set is classed as in vivo. As to conditions: intraperitoneal injection. The source says:
The new object recognition experiment is a highly validated method of cognitive memory, designed by Ennaceur & Delacour (1988) based on the exploration characteristics of rodents to new environments, and this model evaluates the memory function of the tested animal based on the length of time that the animal spends in exploring familiar objects it has seen in the environment and new objects it has not seen. […] The experiment is usually divided into three stages: 1. Adaptation period: let the animal be familiar with the experimental environment, and no objects are placed in the experimental box; 2. Familiarization period: place two identical objects in the experimental box and let the mice explore freely for 10 minutes; 3. Test period: put a new object in the experimental box to replace one of the old objects, and the positions of the objects remain unchanged. The exploration of mice was recorded with video, and the time spent in exploring the old and new objects by mice was analyzed, and the proportion of time spent in exploring the new object by mice in the test period accounting for the total time for exploring the objects was calculated, that is, the recognition index of new objects.
Adult male tri-transgenic Alzheimer's mice (3×Tg-AD) were housed under standard conditions with free access to food and water. […]

Data set [4] is described as follows: Pharmacokinetics in KM mice after intravenous administration. The conditions noted are these: male, mouse, plasma, 1 mg/kg.

The structures appear in SMILES notation. “Also recorded” adds a separate entry of the source.

`CSCC[C@H](NC(=O)[C@@H](Cc1c[nH]c2ccccc12)NC(C)=O)C(=O)N[C@@H](CC(=O)O)C(=O)N[C@@H](Cc1cccc(Br)c1)C(N)=O` [HT-267, Ac-D-Trp-Met-Asp-Phe(3-Br)-NH2]: the EC50 (usually the concentration giving half of the maximal effect) in data set [1] was 23.8 nM. Moreover, in data set [2], the “proportion of exploration duration in the target quadrant vs control” value was “significantly higher than the control group; also recorded: slightly better than the CCK4 administration group” and the “spatial exploration tracks in space exploration experiment” value is given as “more spatial exploration tracks at the original position of the platform”. Moreover, in data set [2] (CCK4 four times a day 10 days, HT-267 once a day 8 days), the “evasion latency in positioning navigation experiment vs control” value was “shorter than that of the control group”. Also, in data set [3], the “recognition index of new objects vs control” value is listed as “significantly higher than that of the control group”. In addition, in data set [4], the AUC(0-inf) – broadly, total exposure, with the tail of the curve extrapolated – came to 302 ng·h/mL; the highest level (Cmax) was 1930 ng/mL; the Tmax (usually the time from dosing to the highest level) stood at 1.98 min. Besides, in data set [4] (T1/2, KM mice male, I.V. 1 mg/kg), the half-life (commonly the time in which the quantity being followed falls by half) is 96.1 min.

Values taken from patent US20240415918A1, “Polypeptide and its use as a CCK receptor agonist/antagonist” (Centre for Regenerative Medicine & Health, Hong Kong …, priority 2021, published 2024).
